The text below walks through data of patent US6080735A, “Estra-1,3,5(10)-trien derivatives, processes for their preparation and pharmaceutical compositions containing these compounds” (priority 1994, dated 2000).

In one series the test system is liver. As to conditions: cited from earlier work.
The conditions of series [1]: cited from earlier work.
Series [2] in a line: Blood level after oral application to ovariectomised rats. The class given is in vivo. As to conditions: ovariectomised rat, 10 μg/animal/d p.o., d1 to d7. How it is done:
Evidence was provided to hepatic estrogenicity in ovariectomised rats: The adult female experimental animals (breeder: HSD/WIN:WU) were ovariectomised (Day […]). Treatment with one daily oral application of test substances was started two weeks after ovariectomy.
Start and end of treatment were defined as Day 1 (=d1) or Day 7 (=d7). The animals were sacrificed on Day 8. Several organs (uterus, adrenal glands, liver) were removed and weighed and were passed on in deep-frozen condition (-196° C.) for further investigation.
Blood was taken from the retrobulbar plexus prior to treatment (d0) as well as on (d4) and (d8), with the animals etherized. The serum thus obtained was used to determine IGF1, angiotensin I, cholesterol and HDL cholesterol.

The subject of series [3] is uterus (ovariectomised rats). Kind of series: Uterus weight after oral treatment of ovariectomised rats (oral estrogen effects, sexual function). As to conditions: ovariectomised rat, 10 μg/animal/d p.o., d1 to d7. It counts as in vivo. From the text:
The adult female experimental animals (breeder: HSD/WIN:WU) were ovariectomised (Day […]). Treatment with one daily oral application of test substances was started two weeks after ovariectomy. All animals were assigned to groups by randomised approach. The experiment was a block design. All animals were weighed twice, prior to and at the end of the experiment. Start and end of treatment were defined as Day 1 (=d1) or Day 7 (=d7). The animals were sacrificed on Day 8. Several organs (uterus, adrenal glands, liver) were removed and weighed and were passed on in deep-frozen condition (-196° C.) for further investigation.

The conditions of series [4]: cited from earlier work. This is another data set of the same source.
The next series has as its system angiotensin. The conditions noted are these: EE 30 μg to 20 μg with 150 μg gestagen (desogestrel), cited from earlier work.
Where [5] appears, read: 0-24 hours from application, Goldzieher.

Where two headings read alike, the source gives them in different places.

In the case of `CC/C(=C(/CC)c1ccc(O)cc1)c1ccc(O)cc1` [DES], the “Hepatic estrogenicity, in words” value in the series on liver (oral, compared with conjugated and natural estrogens) is on record as “Even stronger hepatic estrogenicity”.

On to `C[C@]12CC[C@@H]3c4ccc(O)cc4CC[C@H]3[C@@H]1CC[C@@H]2O` [Estradiol (E2), estradiol], for which the “Bioavailability after oral application” value in series [1] (in vivo, po) is on record as “tends to be minimised”. The Blood level in series [2] is 0.0192 ng/mL (serum). In series [3], this compound showed a Uterus weight of 182 mg.

`C[C@]12CC[C@@H]3c4ccc(O)cc4CC[C@H]3[C@@H]1C[C@@H](O)[C@@H]2O` [Estriol (E3), estriol]: the “Bioavailability after oral application” value in series [1] (in words) is “tends to be minimised”.

On to `C#C[C@]1(O)CC[C@H]2[C@@H]3CCc4cc(O)ccc4[C@H]3CC[C@@]21C` [Ethinyl estradiol (EE), ethinyl estradiol], for which the Blood level in series [2] is 0.0289 ng/mL (serum). Also, the “Hepatic estrogenicity, in words” value with liver (in vivo, po) is listed as “Even stronger hepatic estrogenicity”. In addition, in the series on liver (in vivo), the “Estrogenic effectiveness in the liver relative to orally administered natural estrogens” value is “eight to ten times as high”. Also, the Uterus weight in series [3] is 353 mg. The “highest AUC recorded” value in series [4] (setting [5]) was 2.121 ng·h/mL. In series [4] (setting [5]), the “lowest AUC” value was 0.284 ng·h/mL. For the same compound, the “Oral bioavailability compared with natural estrogens” value in series [4] (human, oral, in words) is “much better in bioavailability”. The figures for the “Effect of dose reduction on increased angiotensin levels” value in the series with angiotensin (six months) and in the series with angiotensin (three months) were “marginally reduced values” and “did not result in reduction”, respectively.

In series [3], `CN(C)S(=O)(=O)Oc1ccc2c(c1)CC[C@@H]1[C@@H]2CC[C@]2(C)[C@@H](O)C[C@@H]3C[C@]312` [J 982, 17β-hydroxy-14α,15α-methylene-estra-1,3,5(10)-trien-3-yl N,N-dimethylsulfamate] had a Uterus weight of 193 mg.

In turn, `CCN(CC)S(=O)(=O)Oc1ccc2c(c1)CC[C@@H]1[C@@H]2CC[C@]2(C)[C@@H](O)C[C@@H]3C[C@]312` [J 983, 17β-hydroxy-14α,15α-methylene-estra-1,3,5(10)-trien-3-yl N,N-diethylsulfamate] had a Uterus weight in series [3] of 349 mg.

For `CCN(CC)S(=O)(=O)Oc1ccc2c(c1)CC[C@@H]1[C@@H]2CC[C@]2(C)[C@@H](O)[C@H](O)C[C@@H]12` [J 984, 16α,17β-dihydroxy-estra-1,3,5(10)-trien-3-yl N,N-diethylsulfamate], in series [3], the Uterus weight was found to be 246 mg.

In series [3], `CN(C)S(=O)(=O)Oc1ccc2c(c1)CC[C@@H]1[C@@H]2CC[C@]2(C)[C@@H](O)[C@H](O)C[C@@H]12` [J 989, 16α,17β-dihydroxy-estra-1,3,5(10)-trien-3-yl N,N-dimethylsulfamate] had a Uterus weight of 183 mg.

For `C[C@]12CC[C@@H]3c4ccc(OS(=O)(=O)O)cc4CC[C@H]3[C@@H]1CCC2=O` [estrone sulphate], in series [1] (in words), the “Bioavailability after oral application” value is “tends to be minimised”.

For `C[C@]12CC[C@@H]3c4ccc(O)cc4CC[C@H]3[C@@H]1CCC2=O` [estrone], the “Bioavailability after oral application” value in series [1] (in vivo, po) is on record as “tends to be minimised”.
